This is an account of results in patent US6753297B2, “Use of indole-3-succinic acid as auxin” (priority 2001, dated 2004).

One data set has as its system Swingtime Fuchsia. Nature of the data set: Root growth of Swingtime Fuchsia cuttings in hydroponic auxin solution. Type of data set: in vivo, Fuchsia hybrida. As to conditions: for Enhancement Ratio: Swingtime Fuchsia (SF), R = (ISAx − H2O)/(IBA − H2O), average root growth per cutting; for root growth activity compared to IBA: versus 10^−7 M IBA. The protocol:
(§1) This example illustrates the auxin effect of each indole-3-succinic acid enantiomer and indole-3-succinic acid racemate, and compares them to IBA and water. A detailed description of this root growth study follows.
(§2) Fresh solutions were used in each experiment. Weights of hormone salts were measured to ±0.01 mg on a Mettler H-16 single-pan mechanical balance (reproducibility=±0.03 mg). Using indole-3-succinic acid R and S enantiomers as the 2×NH4^+ salt, 1.40 mg, was dissolved in 95% ethanol (20 mL) and slowly diluted to 500 mL with deionized water to make a stock solution of 1.047×10^−5 molar concentration. Dilutions were then made in the following manner.
(§3) For the concentration study (S)-indole-3-succinic acid; 2NH4^+ (98% e/e, 1.41 mg), and IBA Na(1.13 mg) were used to make stock solution of 1.055×10^−5 and 1.005×10^−5 molar, respectively. Deionized water was also used as a control.
(§4) Five new-growth cuttings of two different varieties of Fuchsia hybrida (i.e., Varigated Fuchsia and Swingtime Fuchsia) were placed into the 50 mL solutions contained in orange plastic pill containers that were blackened with black electrician's tape. The solutions were placed in a fiberglass solar prism greenhouse (90% of UV light is filtered out of sunlight) in which the temperatures varied from 55° F. (night) to 100° F. (day). The solutions were topped with deionized water daily to the 50 mL mark to compensate for water […] and evaporation. Readings of the root growth were measured in total mm for the cuttings in a particular solution on days 7, 10, 14, 18, 22, 26, 30, and 34. These were recorded as the number of rootlets/total length (mm). […] Therefore, all data reflect the average mm root growth per survived cutting.
(§5) This example compares indole-3-succinic acid enantiomers and ISA racemate to IBA and IAA. More specifically, Table 1 illustrates the relative effectiveness (in promoting root growth) of different indole-3-succinic acid solutions compared to 10^−7 M indole-3-butyric acid (IBA) and a 10^−7 M […].
(§6) This example was conducted in the same manner as in Example 2 above.

For a further data set, the system named is Fuchsia hybrida. As to the kind of experiment: Effectiveness of indole-3-succinic acid derivatives in root growth, procedure of Example 3. Type of data set: in vivo. As to conditions: 10^−7 M aqueous solution. As to the method:
as §4
The process recited in Example 1 was followed to make the derivatives and they were each tested in accordance with the procedure in Example 3 in a 10^−7 M aqueous solution. The derivatives and their effectiveness compared to conventional auxins is reported below.

The subject of another data set is Varigated Fuchsia. As to the kind of experiment: Root growth of Varigated Fuchsia cuttings in hydroponic auxin solution. Type of data set: in vivo, Fuchsia hybrida. Particulars: for Enhancement Ratio: Varigated Fuchsia (VF), R = (ISAx − H2O)/(IBA − H2O), average root growth per cutting; for root growth activity compared to IBA: versus 10^−7 M IBA. The protocol:
as §1, §2, §3, §4, §5, §6

Structures are written as SMILES.

By melting point is commonly meant the temperature, or range, at which the solid turns liquid. As for `O=C(O)CC(C(=O)O)c1c[nH]c2ccccc12` (racemic) [Racemic ISA, indole-3-succinic acid], the melting point was in the range of 196 to 198 °C. For the same compound, the “Enhancement Ratio” value in the data set on Swingtime Fuchsia (10^−7 M) was determined as 7.0. Moreover, in the data set with Swingtime Fuchsia (Swingtime Fuchsia), the “root growth activity compared to IBA” value is “significantly higher”.

With `CC(CC(=O)O)c1c[nH]c2ccccc12` (centres unmarked) [3′-indole-3-methylpropanoic acid], the “Effectiveness compared to IBA” value with Fuchsia hybrida is “same as IBA”.

As to `O=C(O)CC(c1ccccc1)c1c[nH]c2ccccc12` (centres unmarked) [3′-indole-3-phenylpropanoic acid], the “Effectiveness compared to IAA” value in the data set on Fuchsia hybrida is reported as 2× as effective as IAA.

For `O=C(O)CC(C(=O)O)c1c[nH]c2cccc(Cl)c12` (centres unmarked) [4-chloroindole-3-succinic acid], the “Effectiveness compared to IAA” value in the data set on Fuchsia hybrida worked out at 22× more effective than IAA.

Turning to `O=C(O)CC(C(=O)O)c1c[nH]c2ccc(Br)cc12` (centres unmarked) [5-bromoindole-3-succinic acid], in the data set on Fuchsia hybrida, the “Effectiveness compared to IAA” value is given as “same as IAA”.

As to `O=C(O)CC(C(=O)O)c1c[nH]c2ccc(Cl)cc12` (centres unmarked) [5-chloroindole-3-succinic acid], the “Effectiveness compared to IAA” value in the data set with Fuchsia hybrida is 2× more effective than IAA.

`O=C(O)C[C@@H](C(=O)O)c1c[nH]c2ccccc12` [(R)-ISA, (R)-indole-3-succinic acid]: the “Enhancement Ratio” value was determined as 0.7 in the data set with Varigated Fuchsia (10^−7 M), 4.4 in the data set on Varigated Fuchsia (10^−8 M), 5.6 in the data set on Swingtime Fuchsia (10^−7 M) and 7.1 in the data set with Swingtime Fuchsia (10^−8 M). In the data set on Varigated Fuchsia (Varigated Fuchsia), the “root growth activity compared to IBA” value was “nearly the same activity”. For the same compound, the “potency compared to the other ISA enantiomer” value in the data set with Swingtime Fuchsia (Swingtime Fuchsia, 10^−8 M, FIG. 5) was “more potent”.

On to `O=C(O)C[C@H](C(=O)O)c1c[nH]c2ccccc12` [(S)-ISA, (S)-indole-3-succinic acid], for which the “Enhancement Ratio” value with Varigated Fuchsia (10^−7 M) worked out at 3.8; in the data set on Varigated Fuchsia (10^−8 M), 4.6; with Swingtime Fuchsia (10^−7 M), 5.7; with Swingtime Fuchsia (10^−8 M) it was 4.8. In addition, the “potency compared to the other ISA enantiomer” value with Varigated Fuchsia (Varigated Fuchsia, all concentrations of ISA, FIG. 5) is “more potent”.

Take `O=C(O)Cc1c[nH]c2ccccc12` [IAA, indole-3-acetic acid, reference compound]: the “Enhancement Ratio” value with Varigated Fuchsia (10^−7 M) and in the data set on Swingtime Fuchsia (10^−7 M) was 0 each time. The “root growth activity compared to IBA” value with Varigated Fuchsia (Varigated Fuchsia) and with Swingtime Fuchsia (Swingtime Fuchsia) was “substantially lower levels of activity” in each case.
